Key:
[1] = test system: rumen tissue; assay: Ussing chamber permeability of rumen tissue to 3H-mannitol and LPS; type: cell-based, feedlot steers; details: for increase of permeability of rumen tissue to 3H-mannitol: acidic pH 4.5 and presence of LPS (500 μg/mL), Ussing chamber
Text: FIG. 5 is a graph depicting permeability of rumen tissue (obtained from killed feedlot steers) to ^3H-labeled mannitol under different pH values and in the presence (▪) or absence (□) of lipopolysaccharide (LPS) from E. coli B:055 in an Ussing chamber.
FIG. 7 is a graph depicting translocation of LPS across rumen tissue (obtained from killed feedlot steers) under different pH values and in the presence (▪) or absence (□) of lipopolysaccharide (LPS) from E. coli B:055 in an Ussing chamber.
(§1) Accordingly, we investigated whether common rumen fluid and colon concentrations of lipopolysaccharide (LPS) would affect the permeability of rumen and colon tissues to mannitol and LPS in Ussing chambers. In addition, this study was designed to answer the question whether acidic conditions similar to those found in the rumen fluid and colon during conditions of sub-acute and acute acidosis would affect the permeability of rumen and colon tissues to mannitol and LPS.
(§2) Mannitol is a monosaccharide with a molecular weight of 182 daltons and normally is not metabolized by mammalian tissues. Mannitol normally goes through mucosal tissues in small amounts and has been used to evaluate the integrity of mucosal barriers. […] Both acidic pH and presence of LPS disrupts mucosal membranes and make them leaky to bacteria and toxic compounds like endotoxin.
(§3) This means that LPS went through the mucosal membranes (rumen and colon tissues) independently of the pH value.

[2] = test system: colon tissue; assay: Ussing chamber permeability of colon tissue to 3H-mannitol and LPS; type: cell-based, feedlot steers; details: for increase of permeability of colon tissue to 3H-mannitol: acidic pH 5.5 and presence of LPS (500 μg/mL), Ussing chamber
Text: FIG. 6 is a graph depicting permeability of colon tissue (obtained from killed feedlot steers) to ^3H-labeled mannitol under different pH values and in the presence (▪) or absence (□) of lipopolysaccharide (LPS) from E. coli B:055 in an Ussing chamber.
FIG. 8 is a graph depicting translocation of LPS across colon tissue (obtained from killed feedlot steers) under different pH values and in the presence (▪) or absence (□) of lipopolysaccharide (LPS) from E. coli B:055 in an Ussing chamber.
as §1, §2, §3

[3] = test system: transition dairy cows; assay: Clinical incidence of postpartal metabolic disorders after oral vaccination of transition cows; type: in vivo, Holstein cows; details: for reduction of the incidence of metabolic disorders: vs oral saline
Text: (§4) During their final 3 wk prepartum, 32 multiparous Holstein cows were housed in a tie-stall barn with wood shavings for bedding, the number at any given time varied depending on the number of cows at that stage of gestation. Cows were blocked based on their parity, previous milk production as well as their expected day of calving and randomly assigned to one of the four treatment groups (8 cows/group) in a randomized blocked design 2 wk before the expected day of calving until 4 wk postpartum. Cows were offered dry-period and early-lactation diets, formulated according to NRC recommendation (2001) for transition dairy cows.
Diets were mixed and offered as TMR individually once a day at 0600 h. Orts were recorded and discarded before the next feeding each day and the amount of feed was adjusted to ensure a 10% feed residual. Cows were milked twice a day at 0400 and 1500 h, and milk yield was recorded electronically every day for the first 28 days of lactation. All clinical disease and medication were recorded daily during the whole experimental period. The experiment was conducted at the University of Alberta Dairy Research and Technology Center, Edmonton, Canada. All cows were managed and treated in accordance with the guidelines established by the Canadian Council on Animal Care (1993) and all animal-related procedures were approved by the University of Alberta Faculty Animal Policy and Welfare Committee.
(§5) The four groups of cows were administered on d 14, 11, 7, and 4 before the expected day of parturition as well as on d 1 and 3 after parturition, one of the following treatments: (1) oral delivery of 2 mL of saline (0.15 M NaCl), (2) oral delivery of 2 mL of saline containing lipopolysaccharide (LPS) from Escherichia coli 0111:B4 (Sigma, St. Louis, Mo.), (3) intravenous delivery of 100 mL of saline (0.15 M NaCl), or (4) intravenous delivery of 100 mL of saline containing LPS from E. coli 0111:B4. A 5 mL syringe was used for administration of treatment into the oral cavity. The amount of LPS given to cows orally or intravenously (iv) was as follows: (1) on d 14 and 11 before the expected day of parturition 0.01 μg/kg of BW dissolved in 2 mL (oral) or 100 mL (iv) of saline, (2) on d 7 and 4 before the expected day of parturition 0.05 μg/kg of BW dissolved in 2 mL (oral) or 100 mL (iv) of saline, and (3) on d 1 and 3 after parturition 0.1 μg/kg of BW dissolved in 2 mL (oral) or 100 mL (iv) of saline. Cows were given one flat dose of LPS based on the 650 kg average body weight of cows at Dairy Research and Technology Transfer. Rectal temperature, respiration rate, and rumen contraction was measured from all cows 15 min before as well as 60, 120, 180, 240, 300, and 360 min after administration of treatment.

[4] = test system: transition dairy cows; assay: Plasma metabolites, minerals and acute phase proteins of transition cows given LPS; type: in vivo, Holstein cows; details: oral
Text: as §4, §5
A catheter was introduced into the jugular vein 1 h before the administration of treatment to all cows in the experiment. Blood samples were obtained from the jugular catheter 15 min before as well as at 15, 30, 60, 120, 180, 240, 300, and 360 min after administration of treatment on d 14, 11, 7, and 4 before the expected day of parturition as well as on d 1 and 3 after parturition. Also, 1 single blood sample was obtained during d 10, 17, and 24 after parturition.
(§6) Blood was collected into 10-ml Vacutainer tubes (Beckton Dickinson and Co., Rutherford, N.J.) containing K3-EDTA, and plasma was prepared by centrifugation within 20 min. Plasma samples were stored at −20° C. until analyzed for concentrations of serum amyloid A (SAA), lipopolysaccharide-binding protein (LBP), haptoglobin, C-reactive protein (CRP), glucose, insulin, non-esterified fatty acids (NEFA), beta-hydroxybutyric acid (BHBA), lactate, cholesterol, cortisol, calcium, copper, iron, zinc as well as anti-LPS immunoglobulin A, G, and M.

[5] = test system: transition dairy cows; assay: Plasma anti-LPS immunoglobulins A, G and M of transition cows given oral LPS; type: in vivo, Holstein cows; details: around parturition
Text: as §4
The four groups of cows were administered on d 14, 11, 7, and 4 before the expected day of parturition as well as on d 1 and 3 after parturition, one of the following treatments: (1) oral delivery of 2 mL of saline (0.15 M NaCl), (2) oral delivery of 2 mL of saline containing lipopolysaccharide (LPS) from Escherichia coli 0111:B4 (Sigma, St. Louis, Mo.), (3) intravenous delivery of 100 mL of saline (0.15 M NaCl), or (4) intravenous delivery of 100 mL of saline containing LPS from E. coli 0111:B4. A 5 mL syringe was used for administration of treatment into the oral cavity. […] Rectal temperature, respiration rate, and rumen contraction was measured from all cows 15 min before as well as 60, 120, 180, 240, 300, and 360 min after administration of treatment. […]
as §6

[6] = test system: transition dairy cows; assay: Clinical responses, dry matter intake and milk yield of transition cows given LPS; type: in vivo, Holstein cows; details: oral; whole experimental period
Text: We then investigated how transition cows respond clinically to repeated oral and intravenous exposure to an E. coli antigen (E. coli lipopolysaccharide—(“LPS”)) during the 2 weeks before and 1 week after calving, and to determine the effects of repeated oral or intravenous administration of E. coli LPS on eating behaviour and milk yield during the transition period.
as §4, with “Cows were offered dry-period and early-lactation diets, formulated according to NRC recommendation (2001) for transition dairy cows.” left out
Diets were mixed and offered as TMR individually once a day at 0600 h. Orts were recorded and discarded before the next feeding each day and the amount of feed was adjusted to ensure a 10% feed residual. Cows were milked twice a day at 0400 and 1500 h, and milk yield was recorded electronically every day for the first 28 days of lactation. All clinical disease and medication were recorded daily during the whole experimental period. […]

[7] = listed as lipopolysaccharide (LPS) from Escherichia coli 0:B55
[8] = during 6 h after administration, first week after parturition

lipopolysaccharide (LPS) from E. coli B:055 [LPS from E. coli strain B:055]
increase of permeability of rumen tissue to 3H-mannitol [1]: increase several fold | increase of permeability of rumen tissue to 3H-mannitol [1, 7]: 4 fold | effect on permeability of rumen tissue to mannitol ([1]; pH values between 5.5 and 7.4): did not affect | increase of permeability of colon tissue to 3H-mannitol [2]: increase several fold | increase of permeability of colon tissue to 3H-mannitol [2, 7]: 5 fold | effect on permeability of colon tissue to mannitol ([2]; pH values between 5.5 and 7.4): did not affect

lipopolysaccharide (LPS) from Escherichia coli 0111:B4 [LPS from E. coli 0111:B4]
clinical record of individual cow ([3]; oral LPS group, one cow per block): Normal—Calved day 1, Lameness day 44, Mastitis day 71 | reduction of the incidence of metabolic disorders ([3]; oral, after 30 d of parturition): 66% | cows affected by metabolic disorders ([3]; oral, first 30 days after parturition): not affected by any metabolic disorders | cows of the group affected (lameness and mastitis) ([3]; oral, more than 30 days after parturition, one cow): 12% | reduction of the incidence of metabolic disorders ([3]; oral, within the first 30 d after parturition): 100% | plasma glucose concentration vs control cows ([4]; 2 wk before and 1 wk after calving): did not change and were higher | plasma insulin vs control cows ([4]; around parturition): higher | plasma zinc ([4]; around parturition): prevented the decline | plasma copper ([4]; before and after calving): no changes | plasma BHBA concentration vs control cows [4, 8]: lower | plasma NEFA concentration vs control cows [4, 8]: lower | plasma cholesterol concentration vs control cows ([4]; during the 6 h after treatment, last day of the vaccination): Higher | plasma lipopolysaccharide-binding protein (LBP) vs control cows ([4]; especially first 3 days after calving): higher in control cows than in vaccinated ones | plasma serum amyloid A (SAA) vs control group ([4]; experimental period): no significant differences | plasma cholesterol concentration vs control cows ([4]; experimental period / first week after parturition): did not change between the two groups | plasma glucose concentration vs control cows ([4]; first week after calving, before and after vaccination (FIG. 17)): higher | increase of plasma concentration of anti-LPS immunoglobulin M (IgM) [5]: several fold | plasma IgA antibodies against endotoxin vs control cows [5]: lower in vaccinated cows compared with the control ones, although the difference did not reach significant level | plasma anti-endotoxin IgG antibodies vs control cows [5]: lower | dry matter intake vs control cows [6]: no differences
